This is an account of results in patent US20240246995A1, “PYRIMIDINONE DERIVATIVE AND PREPARATION METHOD THEREFOR, PHARMACEUTICAL COMPOSITION, AND USE” (SHANGHAI SIMR BIOTECHNOLOGY CO., LTD., priority 2021, published 2024).

This assay has as its target T1, Lipoprotein-Related Phospholipase A2 (Lp-PLA2) in Human Plasma (Homo sapiens, UniProt Q13093).
T1 construct: 40 μL of equally-divided and thawed mixed human plasma is pre-added; from tissue; host or cells: mixed (pooled) human plasma
T1 sequence (Q13093 22-441): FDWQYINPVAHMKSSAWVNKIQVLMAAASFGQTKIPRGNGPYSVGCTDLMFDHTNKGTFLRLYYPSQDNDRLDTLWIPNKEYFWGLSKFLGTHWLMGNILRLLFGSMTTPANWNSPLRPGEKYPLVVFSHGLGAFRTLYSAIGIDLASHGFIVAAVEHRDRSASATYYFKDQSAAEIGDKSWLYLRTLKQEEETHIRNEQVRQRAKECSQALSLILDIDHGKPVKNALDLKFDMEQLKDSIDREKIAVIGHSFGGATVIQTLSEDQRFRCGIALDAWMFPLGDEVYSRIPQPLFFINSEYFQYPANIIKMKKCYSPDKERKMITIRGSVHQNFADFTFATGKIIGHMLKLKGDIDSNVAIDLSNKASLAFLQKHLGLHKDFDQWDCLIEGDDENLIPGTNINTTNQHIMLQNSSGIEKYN
As to the kind of experiment: Determination of Lp-PLA2 in human plasma (Thio-PAF assay). Particulars: mixed human plasma, 2-thio-PAF substrate, 30 minutes pre-incubation at room temperature. Type of assay: biochemical. The source says:
Determination of Lipoprotein-Related Phospholipase A2 (Lp-PLA2) in Human Plasma.
Human plasma determination utilizes a thioester analogue of phosphatidylcholine (PAF), where hydrolysis leads to the formation of phospholipids containing free thiol groups. The amount of the thiol groups is continuously determined by reacting with CPM (7-diethylamino-3-(4′-maleimidophenyl)-4-methylcoumarin), which is maleimide with increased fluorescence after Michael addition of the thiol groups. This determination can detect the activity of Lp-PLA2 in human plasma, for example, determined by the specific inhibition of the Lp-PLA2 inhibitors.
Thio-PAF determination, as quenched 75 μL determination, is carried out. A compound source plate is prepared by preparing a 1:3 (volume) series of diluents of each compound in pure DMSO on a 96-well microplate. A Rainin multi-channel pipette is used to transfer 3 μL of a compound on the compound source plate into a 96-well microplate where 57 μL of a determination buffer is pre-added, and the compound on the source plate is diluted by 20 folds. The above determination buffer contains 50 mM HEPES (pH 7.4), 150 mM NaCl, and 1 mM CHAPS. A Rainin multi-channel pipette is used to transfer 1 μL of the compound subjected to 20-fold dilution into a 96-well Greiner 655076 (black) microplate where 40 μL of equally-divided and thawed mixed human plasma is pre-added. The plate is oscillated for 20 seconds in an Elisa plate oscillator to be mixed evenly. After 30 minutes of pre-incubation at the room temperature, a Rainin multi-channel pipette is used to add 10 μL of a substrate solution to a 96-well Greiner 655076 (black) microplate, and the substrate solution contains 2.5 mM 2-thio-PAF [from ethanol mother liquor], 32 μM CPM [from DMSO mother liquor] and 3.2 mM NEM (N-ethylmaleimide) [newly prepared in DMSO for each experiment] in a determination buffer composed of 50 mM HEPES (pH 7.4), 150 mM NaCl, and 1 mM CHAPS. After 2 minutes, 25 μL of a 5% trifluoroacetic acid (TFA) aqueous solution is used for quenching the reaction. The plate is centrifuged at 2000 rpm for 1 minute. A Biotek Synergy H1 (H1MF) Elisa reader is used to read the plate at ex:380/em:485. GraphPad Prism 6.0 and Excel are used for IC50 data, curve, and QC analysis.
Turning to `Cc1c(OCc2ccc(Oc3ccnc(C(F)(F)F)c3)c(F)c2)nc(=O)n2c1N1C[C@@H]3C[C@@]1(CC2)CO3` [Example 59, (7aS,10S)-2-((3-fluoro-4-((2-(trifluoromethyl)pyrid-4-yl)oxy)benzyl)oxy)-1-methyl-6,7,10, 11-tetrahydro-4H, 8H-7a,10-methyl-pyrimidinyl[6′,1′: 2,3]pyrimidinyl [6,1-c][1,4]oxazin-4-one], the IC50 (as a rule, the concentration needed to halve the response being measured) was 5.1 nM.
The result for `CCc1c(OCc2ccc(Oc3ccnc(C(F)(F)F)c3)c(F)c2)nc(=O)n2c1N1C[C@@H]3C[C@@]1(CC2)CO3` [Example 60, (7aS,10S)-1-ethyl-2-((3-fluoro-4-((2-(trifluoromethyl)pyrid-4-yl)oxy)benzyl)oxy)-6,7,10, 11-tetrahydro-4H, 8H-7a,10-methyl-pyrimidinyl [6′,1′:2,3] pyrimidinyl[6,1-c] [1,4]oxazin-4-one] reads 12.2 nM; that for `O=c1nc(OCc2cc(F)c(Oc3ccnc(Cl)c3)c(F)c2)c(F)c2n1CC[C@]13CO[C@H](CN21)C3` [Example 61, (7aS, 10S)-2-((4-((2-chloropyrid-4-yl)oxy)-3,5-difluorobenzyl)oxy)-1-fluoro-6,7,10,11-tetrahydro-4H,8H-7a, 10-methylamino-pyrimidine[6′,1′:2,3] pyrimidine[6,1-c] [1,4]oxazin-4-one], 7 nM; that for `COc1c(OCc2ccc(Oc3ccnc(C(F)(F)F)c3)c(F)c2)nc(=O)n2c1N1C[C@@H]3C[C@@]1(CC2)CO3` [Example 62, (7aS,10S)-2-((3-fluoro-4-((2-(trifluoromethyl)pyrid-4-yl)oxy)benzyl)oxy)-1-methoxy-6,7,10, 11-tetrahydro-4H, 8H-7a,10-methyl-pyrimidinyl [6′,1′:2,3] pyrimidinyl[6,1-c] [1,4]oxazin-4-one], 5.2 nM.
To `COc1c(OCc2cc(F)c(Oc3ccnc(OC(F)(F)F)c3)c(F)c2)nc(=O)n2c1N1C[C@@H]3C[C@@]1(CC2)CO3` [Example 63] belongs 5.5 nM; to `N#Cc1c(OCc2ccc(Oc3ccnc(C(F)(F)F)c3)c(F)c2)nc(=O)n2c1N1CCCC1CC2` (stereo not drawn) [Example 64, 2-((3-fluoro-4-((2-(trifluoromethyl)pyrid-4-yl)oxy)benzyl)oxy)-4-oxo-6,7,7a,8,9,10-hexahydro-4H-pyrimidinyl [1,6-a]pyrrolo [1,2-c]pyrimidine-1-nitrile], 5.8 nM.
